Experiments:
CHO cells = test: Cellular association of peptide modified latex microparticles, confocal microscopy, CHO cells; type: cell-based, Chinese Hamster; details: 3 hours at 37° C., 10 ng peptide/μg Sigma carboxylate modified latex, 0.15 μg latex/μL of media, FIG. 4
Procedure: (§1) Latex (50 to 100 μL) was added to PBS (890 to 945 μL) followed by peptide solution (5 to 10 μL) and the resultant 1 mL solution mixed. The material was left to stand at room temperature for 2 hours and then dialysed over night against 2 L of PBS in the dark at 4° C. The particles were then recovered stored at 4° C. in the dark and used without further treatment.
(§2) CHO stock culture was grown in Ham's F12 media supplemented with 10% foetal bovine serum, glutamine (2 mM), fungizone (50 mg/ml) and pen-strep (0.1 mg/ml). Cells were seeded at 1 to 2×10^4 cell/cm^2 using 0.25% trypsin-EDTA and maintained in a humidified 5% CO2 atmosphere, at 37° C. and sub-cultured twice a week.
(§3) Prior (48 hr) to an experiment CHO or HFFF2 cells were plated at 2×10^4/cm^2 in an 8 well chamber slide, 0.7 cm^2 and 0.2 mL/chamber. One day before the experiment, media was replaced with a similar media but containing no lipids. On the day of the experiment, the cells for 4° C. incubation were chilled for 15 minutes prior to any additions. The wells were washed with 0.1 mL of phosphate buffered saline (PBS) and the synthetic LDL system in media added. The slides were then incubated for 1 or 3 hours at either 4° C. or 37° C. the latter in a humidified 5% CO2 atmosphere. […] The lens employed was ×20 PA with a numerical aperture of 0.75 and the data analysed using “Laser-sharp” software (Bio-Rad).

LDL receptor [1] = target: T1, LDL receptor (Homo sapiens, UniProt P01130); test: Effect of anti-LDL receptor antibody on cellular association of peptide modified latex, normal fluorescent microscopy, HFFF-2 cells; type: cell-based; details: 3 hours at 37° C., antibody 8 μg/mL, peptide on Sigma carboxylate modified latex, 0.15 μg latex/μL, FIG. 6
T1 construct: endogenous in cells; host or cells: HFFF-2 fibroblast cells (ECACC 86031405)
T1 sequence (P01130 22-860): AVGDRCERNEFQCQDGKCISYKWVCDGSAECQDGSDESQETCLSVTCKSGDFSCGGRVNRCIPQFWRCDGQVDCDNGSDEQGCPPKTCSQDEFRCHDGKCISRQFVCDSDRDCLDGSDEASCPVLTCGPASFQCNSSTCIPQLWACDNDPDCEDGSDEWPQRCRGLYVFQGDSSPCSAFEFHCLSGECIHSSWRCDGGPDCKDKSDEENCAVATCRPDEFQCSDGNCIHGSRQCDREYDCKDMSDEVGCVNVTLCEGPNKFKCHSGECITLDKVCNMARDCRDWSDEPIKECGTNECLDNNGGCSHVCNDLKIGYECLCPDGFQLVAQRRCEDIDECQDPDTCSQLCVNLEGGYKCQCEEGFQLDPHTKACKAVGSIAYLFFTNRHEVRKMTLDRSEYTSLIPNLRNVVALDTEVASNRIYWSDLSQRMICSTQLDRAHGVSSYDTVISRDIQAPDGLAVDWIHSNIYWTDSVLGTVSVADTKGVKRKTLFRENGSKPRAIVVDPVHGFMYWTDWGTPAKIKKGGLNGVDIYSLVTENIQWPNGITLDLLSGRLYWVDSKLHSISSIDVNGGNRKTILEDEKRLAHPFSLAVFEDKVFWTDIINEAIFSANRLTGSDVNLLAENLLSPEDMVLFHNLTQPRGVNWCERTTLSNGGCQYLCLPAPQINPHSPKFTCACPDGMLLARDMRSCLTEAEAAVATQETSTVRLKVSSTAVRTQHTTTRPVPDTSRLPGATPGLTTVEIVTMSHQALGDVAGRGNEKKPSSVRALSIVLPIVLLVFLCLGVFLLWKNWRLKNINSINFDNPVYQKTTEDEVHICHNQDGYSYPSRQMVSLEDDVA
Procedure: as §1
as §2, with “HFFF2 stock” for “CHO stock”, “in Dulbecco's modified Eagle's” for “in Ham's F12”, “10% v/v” for “10%”, “at 2” for “at 1”, “to 3×10^4” for “to 2×10^4”
Prior (48 hr) to an experiment CHO or HFFF2 cells were plated at 2×10^4/cm^2 in an 8 well chamber slide, 0.7 cm^2 and 0.2 mL/chamber. One day before the experiment, media was replaced with a similar media but containing no lipids. On the date of the experiment, the cells for 4° C. incubation were chilled for 15 minutes prior to any additions. The wells were washed with 0.1 mL of phosphate buffered saline (PBS) and the synthetic LDL microparticle system, in media, added. The slides were then incubated for 1 or 3 hours at either 4° C. or 37° C. the latter in a humidified 5% CO2 atmosphere. […]

LDL receptor [2] = target: T1, LDL receptor; test: Effect of anti-LDL receptor antibody on cellular association of peptide modified latex, confocal microscopy, HFFF-2 cells; type: cell-based; details: 3 hours at 37° C., antibody 8 μg/mL, peptide on Fluoresbrite latex, 0.15 μg latex/μL, FIG. 5
Procedure: as §1
as §2, with “HFFF2 stock” for “CHO stock”, “in Dulbecco's modified Eagle's” for “in Ham's F12”, “10% v/v” for “10%”, “at 2” for “at 1”, “to 3×10^4” for “to 2×10^4”
as §3

For “peptide 3: Retinoic Acid-Tyr-Lys-Leu-Glu-Gly-Thr-Thr-Arg-Leu-Thr-Arg-Lys-Arg-Gly-Leu-Lys-Leu-Ala-Thr-Ala-Leu-Ser-Cholesterol ({retinoic acid}-YKLEGTTRLTRKRGLKLATALS-cholesterol)”, the “cellular association of peptide modified latex (rank order between peptides, fluorescence)” value (CHO cells) was “increased cellular association for peptide 4 followed by peptide 3 and then peptide 1” and the “reduction of cellular association by anti-LDL receptor antibody (normal fluorescent microscopy)” value (LDL receptor [1]) was “the reduction due to the presence of the antibody is clearly visible”.
With “peptide 4: Pyrene Butyric Acid-Lys-Leu-Glu-Gly-Thr-Thr-Arg-Leu-Thr-Arg-Lys-Arg-Gly-Leu-Lys-Leu-Ala-Thr-Ala-Leu-Ser-Leu-Phe-Leu-Phe-Cholesterol ({pyrene butyric acid}-KLEGTTRLTRKRGLKLATALSLFLF-cholesterol)” the “cellular association of peptide modified latex (rank order between peptides, fluorescence)” value (CHO cells) was “increased cellular association for peptide 4 followed by peptide 3 and then peptide 1” and the “reduction of cellular association by anti-LDL receptor antibody (confocal microscopy)” value (LDL receptor [2]) was “the reduction is not as great”.
